PMC7702721 (The AAPS journal, 2016)
Read-outs that look alike come from different tables or passages of the source.

What was measured:
[1] = tested on: Caco-2 monolayer; assay: Transporter inhibition experiments in the Caco-2 monolayer; conditions: kaempferol 10 μM
[2] = Pharmacokinetic study in rats after oral administration of kaempferol; type: in vivo, Sprague–Dawley (SD) rats; conditions: for AUC0-t / Cmax / MRT0-t / Tmax / AUC0−∞ / MRT last: plasma; for AUC0−∞: predicted AUC
[3] = type: in vivo, FVB mice; conditions: oral kaempferol 10 mg/kg; for fold higher plasma Cmax and AUC0-t in absence of Bcrp versus wild-type: Bcrp1^−/− vs wild-type FVB mice
[4] = tested on: rat hepatic and segmental intestinal preparations; assay: Kaempferol glucuronidation via rat hepatic and segmental intestinal microsomes; type: in vitro ADME, SD rats
[5] = tested on: Caco-2 monolayer; assay: Bidirectional efflux of kaempferol-glucuronides across the Caco-2 monolayer; type: in vitro ADME; conditions: 10 μM kaempferol loaded AP or BL, 2 h
[6] = In situ four-site rat intestinal perfusion of kaempferol
[7] = tested on: hepatic and intestinal S9 fractions; type: in vitro ADME, FVB mice; conditions: kaempferol 1.25 μM
[8] = tested on: hepatic and intestinal S9 fractions; type: in vitro ADME, FVB mice; conditions: kaempferol 0.125 μM
[9] = tested on: rat hepatic and segmental intestinal preparations; assay: Kaempferol sulfation via rat hepatic and segmental intestinal S9 fraction; type: in vitro ADME, SD rats; conditions: kaempferol 0.125, 0.5 and 1.25 μM, S9 fraction 0.02 mg/mL
[10] = ref [20]; cited from earlier work
[11] = rat, in vivo
[12] = male SD rats, oral kaempferol 10 mg/kg, n = 6
[13] = male SD rats, oral kaempferol 20 mg/kg, n = 6
[14] = perfusion with 5 μM or 20 μM kaempferol
[15] = male, Sprague-Dawley, rat, po, 10 mg/kg
[16] = male, Sprague-Dawley, rat, po, 20 mg/kg

COc1ccc2c3c([nH]c2c1)[C@H](CC(C)C)N1C(=O)[C@H](CCC(=O)OC(C)(C)C)NC(=O)[C@@H]1C3 [Ko143]
effect on bidirectional efflux rates and Fmet of the two glucuronides ([1]; Ko143 10 μM): significantly decreased | effect on efflux rates and Fmet of K-7-S ([1]; Ko143 10 μM): No statistical differences

CN(C)C(=O)CCSC(SCCC(=O)O)c1cccc(/C=C/c2ccc3ccc(Cl)cc3n2)c1 (stereo not drawn) [MK571]
effect on intracellular amounts of the three metabolites ([1]; MK571 10 μM): did not significantly influence | effect on the three metabolites transported into BL side ([1]; MK571 10 μM): dramatically reduced | effect on efflux rates of the three metabolites toward the BL side ([1]; MK571 10 μM, except K-7-G (AP to BL)): significantly lowered

O=C(O)[C@H]1O[C@@H](Oc2cc(O)c3c(=O)c(O)c(-c4ccc(O)cc4)oc3c2)[C@H](O)[C@@H](O)[C@@H]1O [K-7-G, kaempferol-7-glucuronide]
AUC0-t [2, 12]: 310 ± 95 µmol·min/L | Cmax [2, 12]: 5.29 ± 2.97 µM | MRT0-t [2, 12]: 2.1 ± 0.617 h | Tmax [2, 12]: 0.292 ± 0.0833 h | AUC0-t [2, 13]: 802 ± 231 µmol·min/L | Cmax [2, 13]: 9.55 ± 3.37 µM | MRT0-t [2, 13]: 2.17 ± 0.717 h | Tmax [2, 13]: 0.267 ± 0.0917 h | AUC0−∞ [2, 12]: 314 ± 96 µmol·min/L | AUC0−∞ [2, 13]: 811 ± 311 µmol·min/L | AUC0-t ([3]; Bcrp1^−/− FVB mice): 464 ± 234 µmol·min/L | Cmax ([3]; Bcrp1^−/− FVB mice): 14.9 ± 3.6 µM | MRT ([3]; Bcrp1^−/− FVB mice): 0.757 ± 0.372 h | fold higher plasma Cmax and AUC0-t in absence of Bcrp versus wild-type [3]: > 4 fold | AUC0-t ([3]; Mdr1a^−/− FVB mice): 63.1 ± 15.3 µmol·min/L | Cmax ([3]; Mdr1a^−/− FVB mice): 1.12 ± 0.68 µM | MRT ([3]; Mdr1a^−/− FVB mice): 4.07 ± 0.367 h | AUC0-t ([3]; Mrp1^−/− FVB mice): 13.9 ± 12.0 µmol·min/L | Cmax ([3]; Mrp1^−/− FVB mice): 0.839 ± 0.853 µM | MRT ([3]; Mrp1^−/− FVB mice): 0.43 ± 0.277 h | AUC0-t ([3]; Mrp2^−/− FVB mice): 392 ± 78 µmol·min/L | Cmax ([3]; Mrp2^−/− FVB mice): 14.3 ± 4.8 µM | MRT ([3]; Mrp2^−/− FVB mice): 1.52 ± 0.302 h | AUC0-t ([3]; wild-type FVB mice): 114 ± 79 µmol·min/L | Cmax ([3]; wild-type FVB mice): 2.91 ± 1.94 µM | MRT ([3]; wild-type FVB mice): 1.36 ± 0.57 h | glucuronide formation by liver microsomes, K-7-G versus K-3-G ([4]; rat liver microsomes): more K-7-G than K-3-G | efflux toward the BL side compared with that toward the AP side [5]: not more than twice higher | amount of K-7-G in the perfusate compared with K-3-G ([6]; 20 μM perfusion): slightly higher than that of K-3-G in duodenum and jejunum, but was significantly higher in ileum and colon | regional excretion of metabolite in the perfusate [6, 14]: highest excretion in duodenum and jejunum and the lowest excretion in colon

O=c1c(O)c(-c2ccc(O)cc2)oc2cc(O)cc(O)c12 [Kaempferol, 3,4′,5,7-trihydroxyflavone]
Cmax [2, 15]: 0.305 ± 0.106 µM | MRT last [2, 15]: 0.437 h | Tmax [2, 15]: 0.445 h | Cmax [2, 16]: 0.647 ± 0.244 µM | MRT last [2, 16]: 2.47 h | Tmax [2, 16]: 0.3 h | AUC0-t [2, 12]: 10.3 ± 3.8 µmol·min/L | AUC0-t [2, 13]: 51.8 ± 17.2 µmol·min/L | AUC0−∞ [2, 12]: 11.4 ± 3.7 µmol·min/L | AUC0−∞ [2, 13]: 57.9 ± 13.6 µmol·min/L | Cmax of kaempferol, times lower than that of K-3-G ([2]; rats, oral kaempferol): approximately 50 times | Cmax of kaempferol, times lower than that of K-7-G ([2]; rats, oral kaempferol): ~16 times | time to reach Cmax ([2]; rats, oral kaempferol): ≤ 30 min | free kaempferol plasma concentration (below LLOQ) ([3]; at most periods, all strains of mice): < 3.9 nM | increase of glucuronidation rate versus wild-type ([7]; liver S9, Bcrp1^−/− mice): 32% | decrease of hepatic glucuronidation rate versus wild-type ([7]; liver S9, Mdr1a^−/− mice): ~30% | decrease of hepatic glucuronidation rate versus wild-type ([7]; liver S9, Mrp1^−/− mice): ~ 26% | decrease of hepatic glucuronidation rate versus wild-type ([7]; liver S9, Mrp2^−/− mice): ~ 11% | decrease of sulfation rate versus wild-type ([8]; intestine S9, Mdr1a^−/− mice): ~47% | decrease of sulfation rate versus wild-type ([8]; intestine S9, Mrp1^−/− mice): ~ 25% | decrease of sulfation rate versus wild-type ([8]; intestine S9, Mrp2^−/− mice): ~79% | decrease of sulfation rate versus wild-type ([8]; liver S9, Mdr1a^−/− mice): ~39% | decrease of sulfation rate versus wild-type ([8]; liver S9, Mrp1^−/− mice): ~ 11% | decrease of sulfation rate versus wild-type ([8]; liver S9, Mrp2^−/− mice): ~59% | glucuronidation rates by segment ([4]; kaempferol 1.25, 2.5 and 10 μM, microsomes 0.00318 mg/mL): high and low glucuronidation rates were observed in the small intestine and colon, respectively | sulfation reaction rates by tissue [9]: highest reaction rates in liver | bioavailability [10]: lower than 2% | regional absorption of kaempferol [6, 14]: faster absorption in colon than in jejunum and ileum

O=C(O)[C@H]1O[C@@H](Oc2c(-c3ccc(O)cc3)oc3cc(O)cc(O)c3c2=O)[C@H](O)[C@@H](O)[C@@H]1O [K-3-G, kaempferol-3-glucuronide]
AUC0-t [2, 12]: (1.74 ± 0.47) ×10^3 min•μmol/L | Cmax [2, 12]: 24.6 ± 7 µM | MRT0-t [2, 12]: 1.48 ± 0.233 h | Tmax [2, 12]: 0.333 ± 0.148 h | AUC0-t [2, 13]: (2.79 ± 0.33) ×10^3 min•μmol/L | Cmax [2, 13]: 30.9 ± 5.5 µM | MRT0-t [2, 13]: 1.9 ± 0.467 h | Tmax [2, 13]: 0.4 ± 0.0917 h | AUC0−∞ [2, 12]: (1.76 ± 0.46) ×10^3 min•μmol/L | AUC0−∞ [2, 13]: (2.81 ± 0.33) ×10^3 min•μmol/L | AUC of K-3-G, times higher than that of K-7-G ([2]; rats, 10 mg/kg kaempferol): five | AUC of K-3-G, times higher than that of K-7-S ([2]; rats, 10 mg/kg kaempferol): four | Cmax and AUC of K-3-G relative to K-7-G ([2]; rats, oral kaempferol): threefold to fivefold higher | AUC0-t ([3]; Bcrp1^−/− FVB mice): 848 ± 123 µmol·min/L | Cmax ([3]; Bcrp1^−/− FVB mice): 18 ± 6.4 µM | MRT ([3]; Bcrp1^−/− FVB mice): 1.62 ± 0.362 h | fold higher plasma Cmax and AUC0-t in absence of Bcrp versus wild-type [3]: ~ 2 fold | AUC0-t ([3]; Mdr1a^−/− FVB mice): 143 ± 83 µmol·min/L | Cmax ([3]; Mdr1a^−/− FVB mice): 4.62 ± 1.14 µM | MRT ([3]; Mdr1a^−/− FVB mice): 1.88 ± 1.18 h | AUC0-t ([3]; Mrp1^−/− FVB mice): 38.0 ± 29.1 µmol·min/L | Cmax ([3]; Mrp1^−/− FVB mice): 1.75 ± 1.18 µM | MRT ([3]; Mrp1^−/− FVB mice): 0.557 ± 0.332 h | AUC0-t ([3]; Mrp2^−/− FVB mice): (1.28 ± 0.27) ×10^3 min•μmol/L | Cmax ([3]; Mrp2^−/− FVB mice): 32.3 ± 9.7 µM | MRT ([3]; Mrp2^−/− FVB mice): 1.51 ± 0.183 h | AUC0-t ([3]; wild-type FVB mice): 365 ± 195 µmol·min/L | Cmax ([3]; wild-type FVB mice): 8.92 ± 1.69 µM | MRT ([3]; wild-type FVB mice): 1.72 ± 0.483 h | efflux toward the BL side compared with that toward the AP side [5]: approximately six times higher | detection in plasma during perfusion [11]: detected in plasma | regional excretion of metabolite in the perfusate [6, 14]: highest excretion in duodenum and jejunum and the lowest excretion in colon

O=c1c(O)c(-c2ccc(O)cc2)oc2cc(OS(=O)(=O)O)cc(O)c12 [K-7-S, kaempferol-7-sulfate]
Cmax [2, 15]: 0.332 ± 0.085 µM | MRT last [2, 15]: 17.5 h | Tmax [2, 15]: 18.7 h | Cmax [2, 16]: 0.703 ± 0.296 µM | MRT last [2, 16]: 18.2 h | Tmax [2, 16]: 15.2 h | AUC0-t [2, 12]: 454 ± 90 µmol·min/L | AUC0-t [2, 13]: (1.15 ± 0.22) ×10^3 min•μmol/L | AUC0−∞ [2, 12]: 536 ± 164 µmol·min/L | AUC0−∞ [2, 13]: (1.65 ± 0.56) ×10^3 min•μmol/L | time after dose at which still detected in plasma ([2]; rats, oral kaempferol): 36 h | AUC0-t ([3]; Bcrp1^−/− FVB mice): 156 ± 55 µmol·min/L | AUC0-t ([3]; Mdr1a^−/− FVB mice): 36.7 ± 37.0 µmol·min/L | AUC0-t ([3]; Mrp1^−/− FVB mice): 6.72 ± 5.83 µmol·min/L | AUC0-t ([3]; Mrp2^−/− FVB mice): 102 ± 10 µmol·min/L | Cmax ([3]; male, FVB, mouse, plasma, po, 10 mg/kg, Cmax, wild-type FVB mice): 0.301 ± 0.185 µM | MRT ([3]; male, FVB, mouse, plasma, po, 10 mg/kg, MRT, wild-type FVB mice): 2.75 h | AUC0-t ([3]; wild-type FVB mice): 49.5 ± 38.6 µmol·min/L | regional excretion of metabolite in the perfusate [6, 14]: highest excretion in colon and lowest excretion in ileum

CCCCC/C=C\C\C=C/C=C/C=C/[C@@H](SC[C@H](NC(=O)CC[C@H](N)C(=O)O)C(=O)NCC(=O)O)[C@@H](O)CCCC(=O)O [LTC4]
effect on Fmet (BL to AP) of the three metabolites ([1]; LTC4 0.1 μM): decreased | effect on intracellular amounts of K-3-G and K-7-G (AP to BL) ([1]; LTC4 0.1 μM): significantly increased | effect on amounts of the three metabolites in the AP side ([1]; LTC4 0.1 μM, except K-7-S (AP to BL)): reduced
